These results are taken from patent US20090054454A1, “BENZOFURANYL- AND BENZOTHIENYL- PIPERAZINYL QUINOLINES AND METHODS OF THEIR USE” (priority 2007, published 2009).

Molecules are shown by their SMILES.

The target of one series is T1, human 5-HT1A receptors (Homo sapiens, UniProt P08908).
T1 construct: expressed in transfected cells; host or cells: CHO cells (stably transfected)
T1 sequence (P08908 1-422): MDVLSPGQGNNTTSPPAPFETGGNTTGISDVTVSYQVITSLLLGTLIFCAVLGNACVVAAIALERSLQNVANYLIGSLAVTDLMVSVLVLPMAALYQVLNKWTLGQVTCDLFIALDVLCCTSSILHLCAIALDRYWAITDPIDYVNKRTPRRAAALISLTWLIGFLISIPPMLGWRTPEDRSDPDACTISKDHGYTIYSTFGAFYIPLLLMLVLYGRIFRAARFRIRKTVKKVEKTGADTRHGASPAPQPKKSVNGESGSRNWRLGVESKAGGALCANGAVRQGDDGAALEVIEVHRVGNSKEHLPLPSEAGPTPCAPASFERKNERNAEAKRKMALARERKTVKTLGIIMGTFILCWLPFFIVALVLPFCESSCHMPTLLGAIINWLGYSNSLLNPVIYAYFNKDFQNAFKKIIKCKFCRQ
Kind of series: Displacement of [3H] 8-OH-DPAT from the 5-HT1A serotonin receptor. It counts as binding. The settings on record: 1 μM concentration; starred cells of the 5-HT1A column. (In general: Loss of bound radioactivity is the signal in a displacement assay; it reports binding, not function.)

The target in the next series is 5-HT transporter (Rattus norvegicus, UniProt P31652). Nature of the series: Rat Brain 3H-Paroxetine Binding Assay (RB 5HT Transporter). The settings on record: read-out: RB-5HT Transporter % inhibition @ 1 μM concentration.
Sequence of 5-HT transporter (P31652 whole entry): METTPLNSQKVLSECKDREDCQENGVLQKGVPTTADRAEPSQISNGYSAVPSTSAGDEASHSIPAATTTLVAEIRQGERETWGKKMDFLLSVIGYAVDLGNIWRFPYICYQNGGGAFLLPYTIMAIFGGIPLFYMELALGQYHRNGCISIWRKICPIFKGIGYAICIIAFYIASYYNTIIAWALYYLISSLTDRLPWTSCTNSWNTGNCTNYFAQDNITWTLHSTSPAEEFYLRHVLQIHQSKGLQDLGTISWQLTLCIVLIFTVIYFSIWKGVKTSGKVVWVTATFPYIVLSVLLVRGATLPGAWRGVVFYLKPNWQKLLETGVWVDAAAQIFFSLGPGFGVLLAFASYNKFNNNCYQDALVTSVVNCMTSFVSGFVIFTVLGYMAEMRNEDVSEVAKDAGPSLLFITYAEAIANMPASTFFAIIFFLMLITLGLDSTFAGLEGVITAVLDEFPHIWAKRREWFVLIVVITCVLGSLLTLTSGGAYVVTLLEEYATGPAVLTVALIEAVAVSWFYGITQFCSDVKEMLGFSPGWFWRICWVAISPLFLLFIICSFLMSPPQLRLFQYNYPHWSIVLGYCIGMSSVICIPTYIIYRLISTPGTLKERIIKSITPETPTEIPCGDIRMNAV
The target of the next series is Human 5-HT Transporter (Homo sapiens, UniProt P31645). Nature of the series: Inhibition of 3H-5-HT Uptake by Cells Possessing the Human 5-HT Transporter (HC 5HT Transporter), Jar cells. The settings on record: HC-5HTC Transporter Ki (nM), Jar cells treated with staurosporine.
Sequence of Human 5-HT Transporter (P31645 whole entry): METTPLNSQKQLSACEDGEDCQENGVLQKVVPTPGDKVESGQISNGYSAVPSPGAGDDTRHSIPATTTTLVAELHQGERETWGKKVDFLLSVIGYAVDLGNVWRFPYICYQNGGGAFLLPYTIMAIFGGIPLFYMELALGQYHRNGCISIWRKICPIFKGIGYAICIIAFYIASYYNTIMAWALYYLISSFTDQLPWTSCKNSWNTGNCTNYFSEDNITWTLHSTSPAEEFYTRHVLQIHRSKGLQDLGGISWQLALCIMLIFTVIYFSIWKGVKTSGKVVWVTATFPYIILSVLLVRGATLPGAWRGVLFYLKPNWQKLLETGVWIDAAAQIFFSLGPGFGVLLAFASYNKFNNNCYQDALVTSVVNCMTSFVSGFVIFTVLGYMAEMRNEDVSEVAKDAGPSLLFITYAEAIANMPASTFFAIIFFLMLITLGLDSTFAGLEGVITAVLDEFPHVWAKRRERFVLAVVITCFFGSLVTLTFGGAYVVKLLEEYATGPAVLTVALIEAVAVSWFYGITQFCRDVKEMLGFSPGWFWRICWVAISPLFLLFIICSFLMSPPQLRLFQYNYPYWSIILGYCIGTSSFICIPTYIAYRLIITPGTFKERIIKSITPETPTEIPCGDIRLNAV

One may read the Ki as a measure of affinity in units of concentration, obtained from inhibition or displacement. Read a low Ki as a stronger hold on the target. On to `COc1ccc2occ(CCN3CCN(c4cc(C(C)C)cc5cccnc45)CC3)c2c1` [Compound 24, 8-{4-[2-(5-methoxy-1-benzofuran-3-yl)ethyl]-1-piperazinyl}-6-isopropyl-quinoline], for which the figures for the inhibition at 1 µM at human 5-HT1A receptors and at 5-HT transporter were 46% and 24%, respectively. In addition, the Ki on Human 5-HT Transporter was found to be 3730 nM.
One may read the melting point as the temperature of the solid-liquid transition. In turn, `Fc1ccc2scc([C@H]3CC[C@H](N4CCN(c5ccc(Cl)c6cccnc56)CC4)CC3)c2c1` [Compound 52, 5-chloro-8-{4-[4-trans(5-fluoro-1-benzothien-3-yl)cyclohexyl]piperazin-1-yl}quinoline] displayed a melting point of 195 to 197 °C. Moreover, the inhibition at 1 µM at human 5-HT1A receptors was 42%. Further, the affinity at Human 5-HT Transporter corresponds to a Ki of 751 nM.
